# According to PMC11882969 (Nature Communications, 2025):
# Several values for one entry are separate records, joined by “and”; a condition that tells them apart may be missing. Equal values may be shown once. Read-outs that look alike come from different tables or passages of the source.
# How the values were obtained:
# P-gp (human MDR1) = assay: in vitro; details: dog, MDCK-MDR1, pH 7.4
# CB1R = assay: Bimane fluorescence of labeled CB1R; assay type: biochemical, human; details: 10 μM ligand; apo 459 nm
# Protocol: A minimal cysteine version of CB1R was generated[85] where all the cysteine residues (except C256 and C264) were mutated to alanine. […] Excess label was removed using size exclusion chromatography on a Superdex 200 10/300 Increase column in 20 mM HEPES pH 7.5, 100 mM NaCl and 0.01% MNG/0.001% CHS. Bimane-labeled CB1R at […] was incubated with ligands (10 μM) for one hour at room temperature. Fluorescence data was collected at room temperature in a 150 μL cuvette with a FluorEssence v3.8 software on a Fluorolog instrument (Horiba) in photon-counting mode. Bimane fluorescence was measured by excitation at 370 nm with excitation and emission bandwidth passes of 4 nm. The emission spectra were recorded from 410 to 510 nm with 1 nm increment and 0.1 s integration time.
# [1] = molecular target: T1, CB1R with G protein (Gi1-3, Go) (Homo sapiens, UniProt P21554); assay: GTP turnover assay (GTPase-Glo); assay type: biochemical; details: replicates, sheet FigS3c
# T1 construct: a N-terminal FLAG tag and C-terminal histidine tag was added to human full-length CB1; FLAG (N); histidine tag (C); made in house; host or cells: CB1R: Spodoptera frugiperda Sf9; G proteins: Trichoplusia ni Hi5
# Protocol: Analysis of GTP turnover was performed by using a modified protocol of the GTPase-Glo^TM assay (Promega) described previously. Ligand-bound (10 μM ligand incubated for one hour at room temperature) or apo CB1R (1 μM) was mixed with G protein (1 μM) in 20 mM HEPES, pH 7.5, 50 mM NaCl, 0.01% L-MNG/0.001% CHS, 100 μM TCEP, 10 μM GDP and 10 μM GTP and incubated at room temperature. GTPase-Glo-reagent was added to the sample after incubation for 60 min (Gi1-3) and 20 min for (Go). Luminescence was measured after the addition of detection reagent and incubation for 10 min at room temperature using a SpectraMax Paradigm plate reader.
# [2] = pH 7.4, kinetic, 2% DMSO, 25 °C
# [3] = mouse plasma, 1.0 µM
# in vitro [4] = details: mouse, pH 7.4
# in vitro [5] = details: mouse, microsomes, pH 7.4
# [6] = for Stability time course, Mean (FS10f): relative to 100 at 0 min
# T1 sequence (P21554 whole entry): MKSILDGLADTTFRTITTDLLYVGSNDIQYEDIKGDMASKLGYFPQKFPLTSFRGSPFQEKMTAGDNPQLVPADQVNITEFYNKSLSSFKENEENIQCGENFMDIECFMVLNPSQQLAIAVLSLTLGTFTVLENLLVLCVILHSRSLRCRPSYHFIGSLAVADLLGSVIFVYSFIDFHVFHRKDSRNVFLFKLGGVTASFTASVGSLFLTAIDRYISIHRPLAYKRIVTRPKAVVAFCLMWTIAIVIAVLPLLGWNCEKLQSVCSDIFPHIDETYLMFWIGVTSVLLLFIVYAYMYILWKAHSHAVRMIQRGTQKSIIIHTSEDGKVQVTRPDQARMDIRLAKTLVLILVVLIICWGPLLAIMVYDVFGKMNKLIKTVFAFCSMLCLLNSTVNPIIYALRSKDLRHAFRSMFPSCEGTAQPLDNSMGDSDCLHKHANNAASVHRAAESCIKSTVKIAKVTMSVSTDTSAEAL
smiles,measurement,setting,value
C[C@H]1O[C@@H](O[C@H]2[C@@H](O)C[C@H](O[C@H]3[C@@H](O)C[C@H](O[C@H]4CC[C@@]5(C)[C@H](CC[C@@H]6[C@@H]5C[C@@H](O)[C@]5(C)[C@@H](C7=CC(=O)OC7)CC[C@]65O)C4)O[C@@H]3C)O[C@@H]2C)C[C@H](O)[C@@H]1O [Digoxin],"efflux ratio at 90 min, 10 μM",P-gp (human MDR1),7.3
"COC(=O)[C@@H](NC(=O)c1nn(Cc2ccc(F)cc2)c2ccccc12)C(C)(C)C [MDMB-Fub, MDMB-Fubinaca, reference compound]",bimane spectrum λmax,CB1R,465 nm
same,"GTP turnover, normalised (FUB about 100)",[1]; Gi2,98.933 and 99.3172 and 100.642 and 101.735 and 100.511 and 98.862
same,"GTP turnover, normalised (FUB about 100)",[1]; Gi3,98.4729 and 99.2586 and 100.386 and 101.71 and 99.9413 and 100.231
same,"GTP turnover, normalised (FUB about 100)",[1]; Goa,94.5882 and 101.149 and 98.4211 and 105.861 and 100.202 and 99.77
same,"GTP turnover, normalised (FUB about 100)","[1]; first block, G protein not printed (Gi2, Gi3, Goa follow)",100.725 and 100.983 and 100.099 and 103.208 and 97.7953 and 97.1894
Cc1nccn1CC1CCc2c(c3ccccc3n2C)C1=O (stereo not shown) [Ondansetron],"PBS solubility, Mean",[2],120 µM
"COc1ccc(CCN(C)CCCC(C#N)(c2ccc(OC)c(OC)c2)C(C)C)cc1OC (stereo not shown) [Verapamil, reference compound]",Mean % of bound compound,[3],88%
same,"recovery at 5 h, 1 μM",in vitro [4],91%
CC(C)NCC(O)COc1cccc2ccccc12 (stereo not shown) [Propranolol],"remaining at 40 min, 2 µM",in vitro [5],106%
same,"Stability time course, Mean (FS10f)",[6]; Time 0 min,100
same,"Stability time course, Mean (FS10f)",[6]; Time 7 min,46.9307
same,"Stability time course, Mean (FS10f)",[6]; Time 15 min,32.0792
same,"Stability time course, Mean (FS10f)",[6]; Time 25 min,24.5545
same,"Stability time course, Mean (FS10f)",[6]; Time 40 min,16.6997
same,Mean % Remaining,"[6]; mouse microsomes, 15 min",32%
